{"source": "ChEMBL document CHEMBL5726725", "about": "“Inhibitors of metallo-beta-lactamase (MBL) comprising a zinc chelating moiety” (2019)", "key": {"[1]": {"target": "Metallo-beta-lactamase type 2 (Bacteria, UniProt C7C422)", "sequence (C7C422 whole entry)": "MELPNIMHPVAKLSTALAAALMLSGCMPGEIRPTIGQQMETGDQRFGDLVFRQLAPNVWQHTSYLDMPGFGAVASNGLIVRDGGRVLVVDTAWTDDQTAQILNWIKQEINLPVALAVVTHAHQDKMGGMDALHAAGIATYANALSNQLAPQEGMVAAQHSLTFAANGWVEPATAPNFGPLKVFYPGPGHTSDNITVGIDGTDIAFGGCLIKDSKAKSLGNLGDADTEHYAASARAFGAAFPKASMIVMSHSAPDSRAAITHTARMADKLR", "test": "(§1) MBL Inhibitory Activity in Constructed E. coli Cells Expressing MBLs: a. Transfer 50 μl LB with 0.8 mM IPTG (0.4 mM final concentration in assay) to each wellb. Add 1 μl inhibitor/positive control (500/1000 μM final concentration in assay) to selected wellsc. Add 50 μl overnight culture (=1) to each welld. Incubate in plate reader at 37° C. for 20 min with shakinge. Add 5 μl nitrocefin (3.2 mM) to selected wells with a multichannel pipettef. Incubate the plate in the plate reader for 3 hours, measuring nitrocefin hydrolysis at A482 every minute, with shaking in-betweeng. Measure endpoint at A600 to see how inhibitor alone effects bacterial growthh. Centrifuge the plate at 2800 rpm for 10 min, and transfer 50 μl to clean wellsi. Measure A482 endpoint."}, "[2]": {"test": "as §1"}}, "data": [{"smiles": "COc1ccc(Cn2cc(CN(Cc3ccccn3)Cc3ccccn3)nn2)cc1", "values": [{"measurement": "IC50", "setting": "[1]", "result": 380, "unit": "nM"}, {"measurement": "IC50", "setting": "[2]", "result": 2260, "unit": "nM"}]}]}
